{"source": "patent US20240158339A1", "about": "“TYRAMINE CONTAINING HYDROXYCINNAMIC ACID AMIDE DERIVATIVES AND METHODS OF USE THEREOF” (Brightseed, Inc., priority 2018, published 2024)", "key": {"[1]": {"experiment": "in vivo", "settings": "male, C57BL/6, mouse", "procedure": "Bioavailability Determinations.\nA blood sample from each mouse was drawn at 0.25, 0.5, 1, 2, 4, 6 and 24 hours after administration. An 8μL aliquot of blood was used for analysis. After adding 200 μL of an internal standard comprising 100 ng/mL Labetalol, 100 ng/mL dexamethasone, 100 ng/mL tolbutamide, 100 ng/mL Verapamil, 100 ng/mL Glyburide, and 100 ng/mL Celecoxib in ACN, the mixture was vortex-mixed and centrifuged at 12000 rpm for 15 minutes at 4° C. to pellet precipitated protein. Four μL at of the supernatant was injected for LC-MS/MS analysis. Bioavailability (%) was calculated using AUC0-inf(% AUCExtra<20%) or AUC0-last, (% AUCExtra >20%) with nominal dose."}, "[2]": {"experiment": "Hepatic microsome stability assay, rat", "assay_type": "in vitro ADME", "settings": "for % Remaining: rat microsomes", "experimental": "Hepatic Microsome Assay. Hepatic microsomes stability assays were performed in accordance with known methods (Peddibhotla, et al. (2013) ACS Med. Chem. Lett. 4:846-851). Briefly, 3 μL of 25 μM compound solution in acetonitrile were incubated with 123 μL of mouse, human or rat liver microsomes (Xenotech, Kansas City, KS). After preincubation at 37° C. for 10 minutes, enzyme reactions were initiated by adding 120 !at of NADPH-generating system (2 mM NADP+, 10 mM glucose-6-phosphate, 0.4 U/ml glucose-6-phosphate dehydrogenase, and 5 mM MgCl2) in the presence of 100 mM potassium phosphate buffer (pH 7.4). […] The microsomal concentrations used were 1.0 mg/mL. Compounds were incubated in microsomes for 0, 5, 15, 30 and 60 minutes. The reactions were stopped by the addition of ice cold ACN and the reaction mixtures were centrifuged at 10,000 g for 10 minutes before the supernatant was removed for analysis. A 10 μL portion of the resulting extract was injected on a Thermo HPLC system equipped with PAL CTC plate sampler (96-well plate), Dionex Ultimate 3000 binary pump (flow rate at 0. 600 mL/min), Dionex Ultimate 3000 thermostatted column compartment (temperature at 40° C.), Thermo Endura Mass Spectrometer (ESI source), using a Thermo Scientific Accucore C18 (2.6 μM, 2.1×50 mm) column. A gradient was run starting at 95% H2O (0.1% formic acid) and 5% ACN (0. 1% formic acid) during the first 0. 5 min, then under gradient condition of 5-100% ACN (0.1% formic acid) from minute 0. 5 to 3.5, finishing at 95% H2O (0.1% formic acid) and 5% ACN (0.1% formic acid) over 0.5 min, with another 1 min at 95:5 to re-equilibrate."}, "[3]": {"tested_on": "T6PNE cells", "experiment": "Lipid clearance (steatosis assay) in T6PNE cells", "assay_type": "cell-based", "experimental": "T6PNE cells were pretreated for 1 day with 0.06 mM, 0.12 mM or 0.25 mM palmitate at which time 15 μM N-trans-caffeoyltyramine or control (DMSO) was added. Cells were harvested on day 3, 6 and 8 and subjected to staining with Nile Red and […]. Results are expressed as fold change in Nile Red staining: +palmitate/10% FBS medium (no palmitate).\nLipid Clearance in HepG2 and T6PNE Cells (Steatosis Assay). The steatosis assay was carried out as described (Kiselyuk, et al. (2012) Chem. Biol. 19(7):806-818) with the exception of the drug concentration, which was 20 μM for N-trans-caffeoyltyramine with 0.25 mM palmitate in HepG2 cell lines, and 10 μM of either N-trans-caffeoyltyramine, N-trans-caffeoyltyramine, or p-coumaroyltyramine, with 0.25 mM palmitate in T6PNE cell lines. Steatosis was assessed using the Oil Red O Method for Fats kits (Poly Scientific; Warrington, PA), per manufacturer's guidelines. Briefly, frozen tissue slides or fixed cells were incubated in neat propylene glycol for 2 minutes and Oil Red O solution for […] for slides or 1 hour for fixed cells, differentiated in 85% propylene glycol solution for 1 minute, washed twice with distilled water and stained in Hematoxylin of 10 seconds. Slides were mounted with glycerin jelly mounting medium."}}, "note": "Entries after “also recorded” stand apart in the source; their conditions may differ."}
{"smiles": "O=C(/C=C/c1ccc(O)c(O)c1)NCCc1ccc(O)cc1", "note": "[N-trans-caffeoyltyramine]", "values": [{"measurement": "bioavailability", "setting": "[1]", "result": "~11", "unit": "%"}, {"measurement": "half-life at 1 μM", "setting": "[2]; liver microsomes, pH 7.4, 1 μM", "result": 2.1, "unit": "min"}, {"measurement": "microsomal CLint at 1 μM", "setting": "[2]; liver microsomes, pH 7.4, 1 μM, read-out: Clearance Rate", "result": 674, "unit": "µL/min/mg"}, {"measurement": "half-life at 10 μM", "setting": "[2]; liver microsomes, pH 7.4, 10 μM", "result": 22.4, "unit": "min"}, {"measurement": "microsomal CLint at 10 μM", "setting": "[2]; liver microsomes, pH 7.4, 10 μM, read-out: Clearance Rate", "result": 30.9, "unit": "µL/min/mg"}, {"measurement": "% Remaining", "setting": "[2]; 1 μM", "result": 0.6, "unit": "%"}, {"measurement": "% Remaining", "setting": "[2]; 10 μM", "result": 33.6, "unit": "%"}, {"measurement": "lipid accumulation when palmitate was added prior to compound", "setting": "[3]; T6PNE cells pretreated 1 day with 0.06-0.25 mM palmitate, 15 μM compound, Nile Red, FIG. 6", "result": "reduced lipid accumulation; also recorded: can reverse fat accumulation"}, {"measurement": "fat accumulation", "setting": "[3]; T6PNE cells, 0.25 mM palmitate, 10 μM compound", "result": "inhibition of fat accumulation"}]}
